test system: HMPV clinical isolate TN/1501/A1; test: HMPV antiviral assay Method-B (clinical isolate TN/1501/A1 in LLC-MK2 cells, ATP-Lite readout); format: cell-based, Human metapneumovirus (HMPV); conditions: human metapneumovirus, LLC-MK2, 144 h, hMPV WT1501 (clinical isolate TN/1501/A1), 6 days
Protocol: In vitro HMPV antiviral activity was evaluated using the clinical isolate TN/1501/A1 and LLC-MK2 cells (ATCC #CCL-7), an immortalized kidney epithelial cell line from Macaca mulatta. Compounds were resuspended in dimethyl sulfoxide (DMSO) at 10 mM and added to a 384-well source plate. The compounds were diluted and transferred onto 384-well assay plates using the Echo-650 automated liquid handling system (Beckman Coulter, Indiana). The test compounds were assessed in duplicate at a top concentration of 10 μM followed by 3-fold serial dilutions to give a total of 10 concentration points. DMSO control wells were also included on the assay plates and were either infected or not, acting as positive and negative controls. TN/1501/A1 virus infections were performed in-suspension with LLC-MK2 cells. The cells were washed twice with PBS and removed from the cell-culture flask with 0.25% trypsin-EDTA (Thermo Fisher Scientific, MA). The trypsin-EDTA was inactivated by resuspending in 2% fetal bovine serum (FBS) and OptiMEM (ThermoFisher Scientific, MA) containing 1% penicillin-streptomycin. Cells were pelleted by centrifuging for 5 minutes at 800 rpm, the supernatant was removed, and cells were suspended in PBS plus 100 μg/mL CaCl2). This step was performed twice. Cells were then resuspended in serum-free (SF)-OptiMEM containing 4 μg/mL TPCK-Trypsin (Sigma Aldrich, MO), 1% penicillin-streptomycin (ThermoFisher Scientific, MA) and 100 μg/mL CaCl2). Cells were counted and seeded at a density of 5,000 cells/well, 12.5 μL/well. Virus infections were done at a multiplicity of infection (MOI) of 0.014 with 12.5 μL added per well. SF-OptiMEM, 12.5 μL/well, was added to the appropriate wells to serve as a virus-free negative control for the assay. The final concentration of TPCK-trypsin was 2 μg/mL. Plates were incubated at 37° C., 5% CO2 for 6 days. After 6 days incubation, 12.5 μL of ATP-Lite (PerkinElmer, MA) was added to each well and the raw luminescence values were determined using the Envision 2104 (Perkin Elmer, MA). The average of the raw luminescence values for the cells and virus only positive control wells was subtracted from all conditions tested and the percent cell health was determined by dividing these values by the average of the cells only negative control wells. EC50 values were then calculated by non-linear regression using a four-parameter curve logistic equation. The curve fit model employed was XLFit Dose Response One Site Model 200: y=(A+(B/(1+((x/C)^D)))), where A is the minimum y value, B is the maximum y value, C is the log EC50 value, and D is the slope factor. […] EC50 ranges are as follows: A<0.5 μM; B>0.5 μM.

Going from `Cc1nn(-c2ccccc2)cc1C(=O)NC[C@](O)(c1cc2c(c(-c3ccc(F)cc3)n1)OC[C@]2(C)C(N)=O)C1CC1` [Example 486] to `COc1cc(C(=O)NC[C@](O)(c2cc3c(c(-c4ccc(F)cc4)n2)OC[C@]3(C)C(N)=O)C2CC2)cc2cc(Br)c(C)nc12` [Example 771], the EC50 falls from > 500 nM to < 500 nM. The second is the more potent here.

Compared with `Cc1nc2c(Cl)cc(C(=O)NC[C@](O)(c3cc4c(c(-c5ccc(F)cc5)n3)OC[C@]4(C)C(N)=O)C(F)(F)F)cc2[nH]1` [Example 487], `COc1cc(C(=O)NC[C@](O)(c2cc3c(c(-c4ccc(F)cc4)n2)OC[C@]3(C)C(N)=O)C(F)(F)F)cc2cc(Br)c(C)nc12` [Example 769] is lower in EC50: > 500 nM for the first, < 500 nM for the second.

`C[C@]1(C(N)=O)COc2c1cc([C@@](O)(CNC(=O)c1ccnc3cc[nH]c13)C(F)(F)F)nc2-c1ccc(F)cc1` [Example 488] and `C[C@]1(C(N)=O)COc2c1cc([C@@](O)(CNC(=O)c1ccnc3nccn13)C(F)(F)F)nc2-c1ccc(F)cc1` [Example 489] cannot be ordered by EC50: > 500 nM for the first, > 500 nM for the second.

First: C[C@]1(C(N)=O)COc2c1cc([C@@](O)(CNC(=O)c1cc(OC3CC3)n3nc(C4CC4)cc3c1)C1CC1)nc2-c1ccc(F)c(Cl)c1 [Example 491]
Second: C[C@]1(C(N)=O)COc2c1cc([C@@](O)(CNC(=O)c1cc(Cl)c3nn(C4CC4)cc3c1)C1CC1)nc2-c1cc(Cl)c(F)c(Cl)c1 [Example 680]
The EC50 of the first is lower: < 500 nM for the first, > 500 nM for the second. The first is the more potent here.

`Cc1cnc2c(OC(F)F)cc(C(=O)NC[C@](O)(c3cc4c(c(-c5ccc(F)cc5)n3)OC[C@]4(C)C(N)=O)C(F)(F)F)cc2c1` [Example 493] and `Cc1cnc2c(OC(F)F)cc(C(=O)NC[C@](O)(c3cc4c(c(-c5ccc(F)c(Cl)c5)n3)OC[C@]4(C)C(N)=O)C(F)(F)F)cc2c1` [Example 494] cannot be ordered by EC50: < 500 nM for the first, < 500 nM for the second.

`C[C@]1(C(N)=O)COc2c1cc([C@@](O)(CNC(=O)c1cc(Cl)c3nn(C4CC4)cc3c1)C1(F)CC1)nc2-c1csc2c(F)cccc12` [Example 631] and `COc1cc(C(=O)NC[C@](O)(c2cc3c(c(-c4csc5c(F)cccc45)n2)OC[C@]3(C)C(N)=O)C2(F)CC2)cc2cn(C3CC3)nc12` [Example 632] cannot be ordered by EC50: < 500 nM for the first, < 500 nM for the second.

`COc1cc(C(=O)NC[C@](O)(c2cc3c(c(-c4cc(Cl)c(F)c(Cl)c4)n2)OC[C@]3(C)C(N)=O)C2CC2)cc2cn(C3CC3)nc12` [Example 676] and `COc1cc(C(=O)NC[C@](O)(c2cc3c(c(-c4cc(Cl)c(F)c(Cl)c4)n2)OC[C@]3(C)C(N)=O)C2CC2)cc2cn(C3(F)CC3)nc12` [Example 678] cannot be ordered by EC50: < 500 nM for the first, < 500 nM for the second.

`COc1cc(C(=O)NC[C@](O)(c2cc3c(c(-c4cc(Cl)c(F)c(Cl)c4)n2)OC[C@]3(C)C(N)=O)C2CC2)cc2cn(C(F)F)nc12` [Example 677] and `COc1cc(C(=O)NC[C@](O)(c2cc3c(c(-c4cc(Cl)c(F)c(Cl)c4)n2)OC[C@]3(C)C(N)=O)C2CC2)cc2cc(Br)cnc12` [Example 679] cannot be ordered by EC50: > 500 nM for the first, > 500 nM for the second.

`COc1cc(C(=O)NC[C@](O)(c2cc3c(c(-c4cc(Cl)c(F)c(Cl)c4)n2)OC[C@]3(C)C(N)=O)C2CC2)cc2cc(Cl)c(C)nc12` [Example 681] and `Cc1cnc2c(Cl)cc(C(=O)NC[C@](O)(c3cc4c(c(-c5cc(Cl)c(F)c(Cl)c5)n3)OC[C@]4(C)C(N)=O)C3CC3)cc2c1` [Example 682] cannot be ordered by EC50: > 500 nM for the first, > 500 nM for the second.

`COc1cc(C(=O)NC[C@](O)(c2cc3c(c(-c4ccc(Cl)c(F)c4F)n2)OC[C@]3(C)C(N)=O)C2CC2)cc2cc(Br)cnc12` [Example 689] and `COc1cc(C(=O)NC[C@](O)(c2cc3c(c(-c4ccc(F)c(Br)c4F)n2)OC[C@]3(C)C(N)=O)C2CC2)cc2cc(Br)cnc12` [Example 803] cannot be ordered by EC50: < 500 nM for the first, < 500 nM for the second.

Going from `C[C@]1(C(N)=O)COc2c1cc([C@@](O)(CNC(=O)c1ccc3nn(C4CC4)cc3c1)C1CC1)nc2-c1cc(Cl)c(F)cc1F` [Example 690] to `COc1cc(C(=O)NC[C@](O)(c2nc(-c3cc(Cl)c(F)cc3F)c3c(c2F)[C@](C)(C(N)=O)CO3)C2CC2)cc2cn(C3CC3)nc12` [Example 868], the EC50 rises from < 500 nM to > 500 nM. The first is the more potent here.

`COc1cc(C(=O)NC[C@](O)(c2cc3c(c(-c4ccc5c(c4)OC(F)(F)O5)n2)OC[C@]3(C)C(N)=O)C(F)(F)F)cc2cc(Br)c(C)nc12` [Example 770] and `COc1cc(C(=O)NC[C@](O)(c2cc3c(c(-c4ccc(F)cc4)n2)OC[C@]3(C)C(N)=O)C2(F)CC2)cc2cc(Br)c(C)nc12` [Example 772] cannot be ordered by EC50: < 500 nM for the first, < 500 nM for the second.

Compared with `COc1cc(C(=O)NC[C@](O)(c2cc3c(c(-c4ccc(F)c(Br)c4F)n2)OC[C@]3(C)C(N)=O)C2CC2)cc2cc(Cl)c(C)nc12` [Example 804], `COc1cc(C(=O)NC[C@](O)(c2nc(-c3ccc4c(c3)OC(F)(F)O4)c3c(c2F)[C@](C)(C(N)=O)CO3)C2CC2)cc2cc(Cl)c(C)nc12` [Example 867] is higher in EC50: < 500 nM for the first, > 500 nM for the second. The first is the more potent here.

`COc1cc(C(=O)NC[C@](O)(c2nc(-c3ccc4c(c3)OC(F)(F)O4)c3c(c2F)[C@](C)(C(N)=O)CO3)C2CC2)cc2cn(C3CC3)nc12` [Example 863] and `C[C@@]1(C(N)=O)COc2c(-c3ccc4c(c3)OC(F)(F)O4)nc([C@@](O)(CNC(=O)c3cc(Cl)c4nn(C5CC5)cc4c3)C3CC3)c(F)c21` [Example 864] cannot be ordered by EC50: > 500 nM for the first, > 500 nM for the second.

`COc1cc(C(=O)NC[C@](O)(c2nc(-c3ccc4c(c3)OC(F)(F)O4)c3c(c2F)[C@](C)(C(N)=O)CO3)C2CC2)cc2cn(C3(F)CC3)nc12` [Example 865] and `COc1cc(C(=O)NC[C@](O)(c2nc(-c3ccc4c(c3)OC(F)(F)O4)c3c(c2F)[C@](C)(C(N)=O)CO3)C2CC2)cc2cn(C(F)F)nc12` [Example 866] cannot be ordered by EC50: > 500 nM for the first, > 500 nM for the second.

Compared with `COc1cc(C(=O)NC[C@](O)(c2nc(-c3ccc4c(c3)OC(F)(F)O4)c3c(c2F)[C@@](C)(C(N)=O)CO3)C2CC2)cc2cc(Br)cnc12` [Example 869], `COc1cc(C(=O)NC[C@](O)(c2nc(-c3ccc4c(c3)OC(F)(F)O4)c3c(c2F)[C@](C)(C(N)=O)CO3)C2CC2)cc2cc(Br)cnc12` [Example 870] is higher in EC50: < 500 nM for the first, > 500 nM for the second. The first is the more potent here.

`COc1cc(C(=O)NC[C@@](O)(c2cc3c(c(-c4cc(Br)c(F)cc4F)n2)OC[C@]3(C)C(N)=O)C(F)(F)F)cc2cn(C3CC3)nc12` [Example 957] and `COc1cc(C(=O)NC[C@](O)(c2cc3c(c(-c4cc(Br)c(F)cc4F)n2)OC[C@]3(C)C(N)=O)C(F)(F)F)cc2cn(C3CC3)nc12` [Example 958] cannot be ordered by EC50: < 500 nM for the first, < 500 nM for the second.

Compared with `COc1cc(C(=O)NC[C@@](O)(c2cc3c(c(-c4cccc(Br)c4F)n2)OC[C@]3(C)C(N)=O)C(F)(F)F)cc2cn(C3CC3)nc12` [Example 959], `COc1cc(C(=O)NC[C@](O)(c2cc3c(c(-c4cccc(Br)c4F)n2)OC[C@]3(C)C(N)=O)C(F)(F)F)cc2cn(C3CC3)nc12` [Example 960] is lower in EC50: > 500 nM for the first, < 500 nM for the second.

`COc1cc(F)c(-c2nc([C@@](O)(CNC(=O)c3cc(OC)c4nn(C5CC5)cc4c3)C(F)(F)F)cc3c2OC[C@]3(C)C(N)=O)c(F)c1` [Example 962] and `COc1cc(C(=O)NC[C@](O)(c2cc3c(c(-c4c(F)ccc(F)c4F)n2)OC[C@]3(C)C(N)=O)C(F)(F)F)cc2cn(C3CC3)nc12` [Example 964] cannot be ordered by EC50: < 500 nM for the first, < 500 nM for the second.

`COc1cc(C(=O)NC[C@](O)(c2cc3c(c(-c4c(F)ccc(Cl)c4F)n2)OC[C@]3(C)C(N)=O)C(F)(F)F)cc2cn(C3CC3)nc12` [Example 963] was tested, and the EC50 was < 500 nM.

test system: genotype A, "Long" strain RSV; test: RSV-A assay (CPE protection in Hep-2 cells, ATPlite readout); format: cell-based, Human respiratory syncytial virus (HRSV); conditions: human respiratory syncytial virus, genotype A “Long” strain RSV, MOI 0.1, CPE protection, read-out: Human RSV-A (“Long”)
Procedure, shortened: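 Hep-2 cells (8,000/well) infected with RSV Long strain at MOI 0.1 in the presence of 2-fold compound dilutions in duplicate. After 5 days, cell viability measured by ATPlite luminescence, normalized between virus-only and uninfected cell controls; EC50 reported.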

`Cc1nn(-c2ccccc2)cc1C(=O)NC[C@](O)(c1cc2c(c(-c3ccc(F)cc3)n1)OC[C@]2(C)C(N)=O)C1CC1` [Example 486] and `C[C@]1(C(N)=O)COc2c1cc([C@@](O)(CNC(=O)c1ccnc3cc[nH]c13)C(F)(F)F)nc2-c1ccc(F)cc1` [Example 488] cannot be ordered by EC50: < 200 nM for the first, < 200 nM for the second.

`Cc1nc2c(Cl)cc(C(=O)NC[C@](O)(c3cc4c(c(-c5ccc(F)cc5)n3)OC[C@]4(C)C(N)=O)C(F)(F)F)cc2[nH]1` [Example 487] and `Cc1cnc2c(OC(F)F)cc(C(=O)NC[C@](O)(c3cc4c(c(-c5ccc(F)cc5)n3)OC[C@]4(C)C(N)=O)C(F)(F)F)cc2c1` [Example 493] cannot be ordered by EC50: < 200 nM for the first, < 200 nM for the second.

Going from `C[C@]1(C(N)=O)COc2c1cc([C@@](O)(CNC(=O)c1ccnc3nccn13)C(F)(F)F)nc2-c1ccc(F)cc1` [Example 489] to `Cc1cnc2c(OC(F)F)cc(C(=O)NC[C@](O)(c3cc4c(c(-c5ccc(F)c(Cl)c5)n3)OC[C@]4(C)C(N)=O)C(F)(F)F)cc2c1` [Example 494], the EC50 falls from > 200 nM to < 200 nM. The second is the more potent here.

With `C[C@]1(C(N)=O)COc2c1cc([C@@](O)(CNC(=O)c1cc(OC3CC3)n3nc(C4CC4)cc3c1)C1CC1)nc2-c1ccc(F)c(Cl)c1` [Example 491] the EC50 was < 200 nM.

Reference: patent US12612412B2, “Antiviral heterocyclic compounds” (Enanta Pharmaceuticals, Inc., priority 2021, dated 2026)
